Assay results from patent publication US20220105170A1 (priority 2019, published 2022).
Where “and” joins values, the source holds several entries; their conditions need not be identical. Equal entries are not always repeated.

Tested on: peripheral blood lymphocytes collected from swine exposed to ASFV
Type: cell-based

Substance	Number of Spots
56 (MRYTQIYKYPL) [compound 56]	23
64 (KVNNSMPLI) [compound 64]	32
66 (CTYGEGNGHY) [compound 66]	62
69 (KVNKSMPLI) [compound 69]	255
70 (KSMPLIVENSY) [compound 70]	35
84 (KVLGLLLGY) [compound 84]	16
85 (KSELSYWCTY) [compound 85]	20
241 (MVYNFNTLY) [compound 241]	16
275 (ATYNHRKILIY) [compound 275]	21
278 (MRIEIFWEL) [compound 278]	15
279 (KTDLLNNEF) [compound 279]	17
280 (SLSTLLLKY) [compound 280]	12
283 (YTHLNTWRL) [compound 283]	18
285 (QAMLSSIQYY) [compound 285]	14
297 (LRHNFTKAIHY) [compound 297]	16
309 (FTKAIHYFYKR) [compound 309]	12
321 (KRHKNHLY) [compound 321]	14
328 (KNHLYWRV) [compound 328]	13
329 (ASLDYGMNL) [compound 329]	12
335 (YLHETLFEL) [compound 335]	12
357 (YSYCFIKHF) [compound 357]	13
369 (KHTLQWLGLY) [compound 369]	16
386 (RTENYNLVCEY) [compound 386]	110

Substance	Number of Spots
439 (ISPEKFIKI) [compound 439]	16
447 (NIIHTIYQSY) [compound 447]	331
449 (HTIYQSYSL) [compound 449]	19
458 (IVSEYINYLF) [compound 458]	16
467 (QAYALEYAM) [compound 467]	17
469 (HVVQRLGLY) [compound 469]	14
478 (STYTEIVKY) [compound 478]	33 and 19
523 (MGFSKPFMR) [compound 523]	12
534 (RYFTFKFAAHL) [compound 534]	12
557 (LIEFLTGFF) [compound 557]	16
565 (SKVMDMICLDY) [compound 565]	17
585 (VVDDVPSIDY) [compound 585]	12
607 (NINCFNYCI) [compound 607]	12
608 (INCFNYCILY) [compound 608]	13
625 (SVFMWICIY) [compound 625]	15
633 (ILEGVLGYF) [compound 633]	14
635 (IRGRSLNMLSL) [compound 635]	12
641 (GRSLNMLSLI) [compound 641]	16
647 (GADPTQKDY) [compound 647]	14
653 (WAVFTGNMEL) [compound 653]	16
703 (STVITTAYNF) [compound 703]	13
724 (HSDMYSVIFNI) [compound 724]	15
725 (SDMYSVIFNI) [compound 725]	15

Substance	Number of Spots
726 (DMYSVIFNIKY) [compound 726]	14
743 (SKFCNHMFF) [compound 743]	16
744 (SKFCNHMFFR) [compound 744]	18
756 (FTDNLCFMM) [compound 756]	19
757 (CFMMQCKSIY) [compound 757]	16
769 (RLNAPNLKY) [compound 769]	13
784 (KSKQASISSI) [compound 784]	12
827 (NNVSYYWGL) [compound 827]	13
835 (AMFFTRSEW) [compound 835]	26
836 (RSEWASSNTF) [compound 836]	31
839 (ASSSMHSGM) [compound 839]	16
842 (SSMHSGMLY) [compound 842]	13 and 23
847 (YINFRLKTFY) [compound 847]	21
849 (FLKKNIYLY) [compound 849]	13
857 (AVNSTGLIGY) [compound 857]	17
860 (KARLCGLSY) [compound 860]	14 and 19
865 (RRVHASYPGY) [compound 865]	15
869 (GLAALVSPY) [compound 869]	13
872 (RVDMNRFFQF) [compound 872]	15 and 18
880 (SSIVFQHEM) [compound 880]	66
884 (ISAINHFNY) [compound 884]	19
888 (TMMHYPTFNW) [compound 888]	12
889 (MMHYPTFNW) [compound 889]	16

Substance	Number of Spots
896 (SGLQSFYLY) [compound 896]	18 and 26
906 (WVGYNNVCYY) [compound 906]	12
908 (VGYNNVCYY) [compound 908]	16
921 (SVLLRDSGYY) [compound 921]	14
923 (VLLRDSGYY) [compound 923]	14 and 16
925 (KKQKHVSLL) [compound 925]	14
926 (KQKHVSLLY) [compound 926]	16
931 (SIDYWVSFNK) [compound 931]	12
954 (NNFTATCII) [compound 954]	15
960 (ETTLINCTYL) [compound 960]	13
962 (TTLINCTY) [compound 962]	12
963 (TLINCTYLTL) [compound 963]	19
971 (LTLSSNYFY) [compound 971]	12
977 (LSSNYFYTF) [compound 977]	18
1001 (FKLYYIPLSI) [compound 1001]	21
1006 (KRKKHVEEI) [compound 1006]	13
1019 (TQPLNPFPL) [compound 1019]	21
1020 (QTNCQLYFF) [compound 1020]	18
1024 (SQKLVQLFY) [compound 1024]	20
1033 (SVSPVFTSGY) [compound 1033]	16
1049 (SLEFNTFYAF) [compound 1049]	15
1065 (KTRGTRLFF) [compound 1065]	36
1080 (FRDHFIAL) [compound 1080]	16

Substance	Number of Spots
1090 (ALFPQYISYY) [compound 1090]	106
1091 (LFPQYISYY) [compound 1091]	17
1106 (CSSCMVRTY) [compound 1106]	130
1107 (RTIPVAWDRF) [compound 1107]	18
1111 (RTDFVWVADL) [compound 1111]	13
1120 (SLPDVSTLPY) [compound 1120]	13
1127 (RALKMYEDYY) [compound 1127]	12
1129 (IMDDLVEEY) [compound 1129]	14
1139 (ALANTSANY) [compound 1139]	12
1141 (ILAEYVYSY) [compound 1141]	18
1150 (KSQDTLHRF) [compound 1150]	12
1151 (NLSEVVTAY) [compound 1151]	16
1159 (MAEIRFLSM) [compound 1159]	12
1172 (RCQHHAFSY) [compound 1172]	12
1184 (LSDLRNFSF) [compound 1184]	16
1187 (FSEHTKFFSY) [compound 1187]	15 and 16
1188 (VSNILHSVF) [compound 1188]	13
1196 (KEMQDYSLTF) [compound 1196]	17
1204 (MQDYSLTF) [compound 1204]	17
1205 (QDYSLTFLLK) [compound 1205]	17
1207 (DYSLTFLLKK) [compound 1207]	17
